Test results from patent publication US8772499B2, “TRPV3 modulators” (AbbVie Inc., priority 2011, dated 2014).
Where two headings read alike, the source gives them in different places.

Legend:
[1] = tested on: chronic constriction injury (CCI) model of neuropathic pain; assay: In vivo chronic constriction injury (CCI) model of neuropathic pain, mechanical allodynia (von Frey); set-up: species or system CD1 mice; conditions: 100 mg/kg oral dose, mechanical allodynia 1 hour after dosing, CCI mice, average of eight mice, vehicle 0%, control 100%; for inhibition in vivo at 100 mg/kg: Mus musculus, po, 1 h, read-out: % EFFECT
Method: Test compounds were evaluated for analgesic effect in an in vivo chronic constriction injury (CCI) model of neuropathic pain. CD1 mice (Charles River) were used for these studies. Prior to testing (2-4 weeks) animals underwent a surgical procedure consisting of approximately 3 loose ligatures around the sciatic nerve. Following sterilization procedures, under isofluorane anesthetic, a 1.5 cm incision was made dorsal to the pelvis. The biceps femoris and gluteous superficialis (right side) were separated and the sciatic nerve exposed, isolated, and 2-4 loose ligatures (5-0 chromic gut) with less than 1 mm spacing were placed around it. Following hemostasis, the wound was sutured (layer of muscle closed with 5-0 nylon suture, and the wound closed with surgical staples) and coated with iodine. The mice were allowed to recover on a warming plate and were returned to their home cages (soft bedding) when able to walk on their own.
Two to four weeks after the surgery, test compound was administered orally (PO) in these mice, and mechanical allodynia was evaluated 1 hour after oral dosing where the threshold to response was assessed using calibrated von Frey monofilaments. The von Frey monofilaments were applied to the hind paw at increasing forces until the animal responded by lifting its paw. Normally, the force of the von Frey monofilament was innocuous and only in the altered state (allodynia or hyperalgesia) did the animals respond to this stimulation. […] At the end of the experiment, after behavioral testing, plasma (and in some instances brain tissue) was taken for exposure analysis.
Each test compound was evaluated in eight different mice. The data reported in Table 3 represent the average value of the approximate percent effect of each compound in relieving neuropathic pain in mice receiving 100 mg/kg oral dose of the test compound. The grams of force needed to elicit a withdrawal response from the injured mouse that was challenged with vehicle was assigned a 0% effect, while the grams of force needed to elicit a withdrawal response from the control was given a 100% effect.

[2] = In vitro rat microsomal stability assay; format: in vitro ADME, rat (Sprague-Dawley); conditions: for RAT MICROSOMAL STABILITY (% REMAINING AFTER 30 MINUTES): Sprague-Dawley, microsomes, 0.5 h, 0.5 μM, pH 7.4
Method in brief: (§1)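 Sprague-Dawley rat or human liver microsomes; 37° C.; NADPH cofactor, also spiked into time-zero samples.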

[3] = In vitro human microsomal stability assay; format: in vitro ADME; conditions: for HUMAN MICROSOMAL STABILITY (% REMAINING AFTER 30 MINUTES): microsomes, 0.5 h, 0.5 μM, pH 7.4
Method in brief: as §1

human TRPV3 = target: T1, human TRPV3 (Homo sapiens, UniProt Q8NET8); assay: In vitro antagonism of recombinant human TRPV3 activation (FLIPR Tetra calcium assay); format: cell-based; conditions: HEK293 cells stably expressing human TRPV3, agonist 2-APB at 80 μM
T1 construct: expressed in transfected cells
T1 sequence (Q8NET8 1-790): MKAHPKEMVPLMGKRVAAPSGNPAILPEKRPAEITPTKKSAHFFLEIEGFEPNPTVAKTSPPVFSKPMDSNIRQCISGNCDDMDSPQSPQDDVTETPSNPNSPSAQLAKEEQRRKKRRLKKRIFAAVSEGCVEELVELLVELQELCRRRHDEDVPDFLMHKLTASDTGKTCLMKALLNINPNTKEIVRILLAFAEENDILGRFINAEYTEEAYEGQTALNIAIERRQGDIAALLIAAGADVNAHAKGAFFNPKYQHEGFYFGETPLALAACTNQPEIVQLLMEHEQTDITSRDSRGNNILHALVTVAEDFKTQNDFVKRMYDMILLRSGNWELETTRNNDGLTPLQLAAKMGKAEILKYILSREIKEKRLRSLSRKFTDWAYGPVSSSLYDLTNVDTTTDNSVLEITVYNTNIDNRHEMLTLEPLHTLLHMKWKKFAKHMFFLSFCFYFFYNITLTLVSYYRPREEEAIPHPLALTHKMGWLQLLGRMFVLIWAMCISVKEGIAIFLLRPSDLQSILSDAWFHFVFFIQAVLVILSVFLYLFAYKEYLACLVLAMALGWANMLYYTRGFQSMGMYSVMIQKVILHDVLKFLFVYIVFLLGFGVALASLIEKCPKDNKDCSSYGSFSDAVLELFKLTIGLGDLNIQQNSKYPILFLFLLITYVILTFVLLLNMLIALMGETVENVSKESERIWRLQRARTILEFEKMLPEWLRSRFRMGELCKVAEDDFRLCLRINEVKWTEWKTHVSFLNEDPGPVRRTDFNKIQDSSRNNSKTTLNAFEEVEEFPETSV
Method in brief: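 Calcium flux read over a 10 min run: compound added at 10 s to Calcium-4-loaded human TRPV3-HEK293 cells, agonist 2-APB (80 μM, its EC80) after 3 min. IC50 derived from peak-minus-baseline signal as percentage of uninhibited 2-APB response, typically averaged over at least two runs.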

[4] = actual measured value shown parenthetically, in most cases average of at least two runs, read-out: IC50
[5] = reported range, read-out: IC50 (range class)

Row | IC50 (human TRPV3; [4]) [nM] | RAT MICROSOMAL STABILITY (% REMAINING AFTER 30 MINUTES) [2] [%] | HUMAN MICROSOMAL STABILITY (% REMAINING AFTER 30 MINUTES) [3] [%] | SMILES | % EFFECT [1] [%] | RAT […] (% REMAINING AFTER 30 MINUTES) ([2]; rat liver microsomes (Sprague-Dawley), 0.5 μM substrate, 0.25 mg/mL microsomal protein, pH 7.4, 37° C., NADPH, 30 minutes) [%] | HUMAN […] (% REMAINING AFTER 30 MINUTES) ([3]; human liver microsomes, 0.5 μM substrate, 0.25 mg/mL microsomal protein, pH 7.4, 37° C., NADPH, 30 minutes) [%] | IC50 (human TRPV3; [5]) [nM] | inhibition in vivo at 100 mg/kg [1] [%]
1 | 220 | 74 | >85 | OC1CC(c2ccc(Cl)c(Cl)c2)(C(O)c2ccccn2)C1 (single isomer, unassigned) [Example 118] | 89 | – | – | – | –
2 | 570 | 69 | >85 | OC1CC(c2ccc(Cl)c(Cl)c2)(C(O)c2ccccn2)C1 (single isomer, unassigned) [Example 119] | 16 | – | – | – | –
3 | 860 | 72 | 78 | CC1(O)CC(c2ccc(OC(F)(F)F)cc2)(C(O)c2ccccn2)C1 (single isomer, unassigned) [Example 134] | – | – | – | – | 98
4 | 1950 | 67 | 80 | CC1(O)CC(c2ccc(C(F)(F)F)cc2)(C(O)c2ccccn2)C1 (single isomer, unassigned) [Example 232] | – | – | – | – | 65
5 | 760 | 41 | 54 | CC1(O)CC(c2cccc(C(F)(F)F)c2)(C(O)c2ccccn2)C1 (single isomer, unassigned) [Example 236] | – | – | – | – | 33
6 | 110 | 67 | 59 | O[C@H](c1ccccn1)C1(c2ccc(OC(F)(F)F)cc2)CC(F)(F)C1 [Example 128, (S)-{3,3-difluoro-1-[4-(trifluoromethoxy)phenyl]cyclobutyl}(pyridin-2-yl)-methanol] | – | – | – | – | 78
7 | 390 | 9.5 | 24 | O[C@H](c1ccccn1)[C@]1(c2ccc(Cl)c(Cl)c2)CCO1 [Example 136, (R)-[(2R)-2-(3,4-dichlorophenyl)oxetan-2-yl](pyridin-2-yl)methanol] | – | – | – | – | 52
8 | 6010 | >85 | 73 | OC1CC(c2ccc(C(F)(F)F)cc2)(C(O)c2ccccn2)C1 [Example 201, trans-3-[(S)-hydroxy(pyridin-2-yl)methyl]-3-[4-(trifluoromethyl)phenyl]-cyclobutanol] | – | – | – | – | 64
9 | 2520 | 25 | 70 | CN[C@@H]1CCC[C@H]1[C@@H](O)C1(c2ccc(Cl)c(Cl)c2)CCC1 [Example 228, (R)-[1-(3,4-dichlorophenyl)cyclobutyl][(1R,2R)-2-(methylamino)-cyclopentyl]methanol] | – | – | – | – | 52
10 | 9230 | 70 | 70 | C[C@]1(O)C[C@@](c2ccc(OC(F)(F)F)cc2)([C@@H](O)c2ccccn2)C1 [Example 250, cis-3-[(R)-hydroxy(pyridin-2-yl)methyl]-1-methyl-3-[4-(trifluoromethoxy)-phenyl]cyclobutanol] | – | – | – | – | 57
11 | 630 | 57 | 48 | C[C@]1(O)C[C@@](c2cccc(OC(F)(F)F)c2)([C@H](O)c2ccccn2)C1 [Example 262, cis-3-[(S)-hydroxy(pyridin-2-yl)methyl]-1-methyl-3-[3-(trifluoromethoxy)-phenyl]cyclobutanol] | – | – | – | – | 45
12 | 690 | >85 | >85 | OC1CC(c2cc(C(F)(F)F)ccn2)(C(O)c2ccccn2)C1 [Example 283, trans-3-[(S)-hydroxy(pyridin-2-yl)methyl]-3-[4-(trifluoromethyl)pyridin-2-yl]cyclobutanol] | – | – | – | – | 49
13 | 4920 | 0.020 | 35 | OC(c1ccccn1)C1(c2nc3ccc(F)cc3s2)CCC1 (stereo not drawn) [Example 300, [1-(6-fluoro-1,3-benzothiazol-2-yl)cyclobutyl](pyridin-2-yl)methanol] | – | – | – | – | –
14 | 6040 | 22 | 57 | OC(c1ccccn1)C1(c2nc3ccc(Cl)cc3o2)CCC1 (stereo not drawn) [Example 301, [1-(6-chloro-1,3-benzoxazol-2-yl)cyclobutyl](pyridin-2-yl)methanol] | – | – | – | – | –
15 | 530 | 32 | 80 | OC1CC(c2cncc(C(F)(F)F)c2)(C(O)c2ccccn2)C1 [Example 303, cis-3-[(S)-hydroxy(pyridin-2-yl)methyl]-3-[5-(trifluoromethyl)pyridin-3-yl]cyclobutanol] | – | – | – | – | –
16 | 250 | 44 | >85 | OC1CC(c2cncc(C(F)(F)F)c2)(C(O)c2ccccn2)C1 [Example 304, trans-3-[(S)-hydroxy(pyridin-2-yl)methyl]-3-[5-(trifluoromethyl)pyridin-3-yl]cyclobutanol] | – | – | – | – | –
17 | 290 | 49 | 63 | OC1CC(c2ccnc(C(F)(F)F)c2)(C(O)c2ccccn2)C1 [Example 305, cis-3-[(S)-hydroxy(pyridin-2-yl)methyl]-3-[2-(trifluoromethyl)pyridin-4-yl]-cyclobutanol] | – | – | – | – | –
18 | > 20000 | >85 | >85 | CC1(O)CC(c2ccc(OC(F)(F)F)cc2)(C(O)c2ncccn2)C1 [Example 310, trans-3-((S)-hydroxy(pyrimidin-2-yl)methyl)-1-methyl-3-(4-(trifluoromethoxy)phenyl)cyclobutanol] | – | – | – | > 20000 | –

Row | SMILES | IC50 (human TRPV3; [4]) [nM] | RAT MICROSOMAL STABILITY (% REMAINING AFTER 30 MINUTES) [2] [%] | HUMAN MICROSOMAL STABILITY (% REMAINING AFTER 30 MINUTES) [3] [%] | % EFFECT [1] [%] | RAT […] (% REMAINING AFTER 30 MINUTES) ([2]; rat liver microsomes (Sprague-Dawley), 0.5 μM substrate, 0.25 mg/mL microsomal protein, pH 7.4, 37° C., NADPH, 30 minutes) [%] | HUMAN […] (% REMAINING AFTER 30 MINUTES) ([3]; human liver microsomes, 0.5 μM substrate, 0.25 mg/mL microsomal protein, pH 7.4, 37° C., NADPH, 30 minutes) [%] | IC50 (human TRPV3; [5]) [nM] | inhibition in vivo at 100 mg/kg [1] [%]
19 | C[C@]1(O)C[C@](c2cc(C(F)(F)F)ccn2)([C@H](O)c2ccccn2)C1 (relative stereo) [Example 285, cis-3-[(S)-hydroxy(pyridin-2-yl)methyl]-1-methyl-3-[4-(trifluoromethyl)-pyridin-2-yl]cyclobutanol] | 1000 | – | – | 59 | 69 | 83 | 501 to 1000 | –
